Results from patent publication EP0624586B1, “Substituted pyrroles” (F. HOFFMANN-LA ROCHE AG, priority 1993, dated 1994).
Counter-ions that a name gives are not always drawn.

Target: protein kinase C
Assay: in vitro protein kinase C inhibition (32P incorporation from [γ-32P]ATP into histone)
Type: biochemical
Details: protein kinase C isolated from rat brains; 10 µM [γ-32P]ATP, lysine-rich histone, 30°C, 10 minutes
Procedure: Reaction mixtures (100 µl) contain 10 µM [γ-^32P]ATP, 0.2 mg/ml (about 15 µM) lysine-rich histone, 0.5 mM CaCl2 and 40 µg/ml phosphatidylserine in 25 mM Tris HCl, 5 mM MgNO3 (pH 7.5) buffer. The enzyme protein kinase C is isolated from rat brains according to the method of Kikkawa et al., J. Biol. Chem. 257, 13341 (1982). The reaction is started by adding the enzyme, is run at 30°C for 10 minutes and is then stopped using 1 ml of ice-cold 10% trichloroacetic acid. Acid-precipitable protein is collected on glass fibre discs by filtration. These discs are then washed with 5% trichloroacetic acid containing 20 mM sodium pyrophosphate (in order to remove unreacted ATP), followed by ethanol. The discs are dried and counted. Counts associated with each disc are used as a measure of the incorporation of ^32P from [γ-^32P]ATP into histone. The degree of enzyme blockade at each test compound concentration is calculated from (Cpm incorporated + test compound + enzyme)/(Cpm incorporated - test compound + enzyme)x 100% [formula] The IC50 value is that concentration of test compound which reduces by 50% the protein kinase-induced incorporation of the ^32P under the assay conditions described above.

Row | SMILES | IC50 [nM]
1 | CCC(N)[C@H]1CCn2c(c(C3=C(c4cn(C)c5ccccc45)C(=O)NC3=O)c3ccccc32)C1 (single isomer, unassigned) [Example 10, 3-[8(S)-[1(R or S)-aminopropyl]-6,7,8,9-tetrahydropyrido[1,2-a]indol-10-yl]-4-(1-methyl-3-indolyl)-1H-pyrrole-2,5-dione hydrochloride] | 3.3
2 | CC(C)[C@H](N)[C@H]1CCn2c(c(C3=C(c4cn(C)c5ccccc45)C(=O)NC3=O)c3ccccc32)C1 [Example 11, 3-[8(S)-[1(S)-amino-2-methylpropyl]-6,7,8,9-tetrahydropyrido[1,2-a]indol-10-yl-4-(1-methyl-3-indolyl)-1H-pyrrole-2,5-dione hydrochloride] | 5.5
